Results on 29 compounds are retold here after patent publication US10898469B2, “Imidazolylamide derivative” (Sumitomo Dainippon Pharma Co., Ltd., priority 2016, dated 2021).

Where a name gives a salt, the structure may show the parent alone. Read-outs that look alike come from different tables or passages of the source.

Holding throughout (type): cell-based, human
One experiment has as its system HCT-116 cells. Briefly: Inhibition test for sphere-forming ability of cancer cells (Test Example 1), HCT-116. The following applies: HCT-116 cells, concentration for 50% inhibition of cell proliferation, read-out: IC50 (μmol/L) HCT-116 (Sphere IC50 value). An excerpt: (§1) The reliable methods established for measuring the self-renewal ability of cells which is one of the CSC's properties include a method for measuring the sphere-forming ability of cancer cells in non-adherent condition in the absence of serum (Cancer Res 65, 5506-5511 (2005)). Human colorectal cancer-derived HCT-116 cells, human colon-adenocarcinoma-derived HT-29 cells, and human pharyngeal cancer-derived FaDu cells were available from American Type Culture Collection (ATCC). HCT-116 cells and HT-29 cells were cultured at 37° C. under 5% CO2 using the McCoy's 5a medium containing 10% fetal bovine serum (FBS) and 1% penicillin/streptomycin, and FaDu cells were cultured at 37° C. under 5% CO2 using the MEM medium containing 10% FBS, 1% non-essential amino acid, 1% sodium pyruvate, and 1% penicillin/streptomycin. HCT-116 cells, HT-29 cells, and FaDu cells were seeded in a 384 Well Black Clear Bottom Ultra-Low Attachment Microplate (Corning Cat. No. 3827) in an amount of 350-800 cells/well using the DMEM/F12 medium containing 2% B27 supplement (GIBCO), 20 ng/mL epidermal growth factor (EGF) (peprotech), 10 ng/mL basic fibroblast growth factor (bFGF) (peprotech), 5 μg/mL insulin (Sigma), and 1% penicillin/streptomycin. Each test compound was added into each well to adjust the final concentration of DMSO to 0.1%, and the cells were cultured for 4 days. The number of viable cells in each well was then measured with CellTiter-Glo® Luminescent Cell Viability Assay (Promega) to calculate the concentration of each test compound for 50% inhibition of cell proliferation (Sphere IC50 value; μmol/L).
(§2) The experiment of Test Example 1 was performed for each compound of each Example. The concentration of each test compound for 50% inhibition of cell proliferation (Sphere IC50 value; μmol/L) is shown in the following Table.

The test system of another experiment is FaDu cells. Briefly: Inhibition test for sphere-forming ability of cancer cells (Test Example 1), FaDu. The following applies: Homo sapiens, concentration for 50% inhibition of cell proliferation, read-out: IC50 (μmol/L) FaDu (Sphere IC50 value).
Excerpt: as §1, §2

The subject of the next experiment is HT-29 cells. Briefly: Inhibition test for sphere-forming ability of cancer cells (Test Example 1), HT-29. The following applies: concentration for 50% inhibition of cell proliferation, read-out: IC50 (μmol/L) HT-29 (Sphere IC50 value).
Excerpt: as §1, §2

Turning to `CCOc1ccc(/C=C/C(=O)Nc2cn(Cc3cccc(Cl)c3)cn2)cn1` [Example 1, (E)-N-(1-(3-Chlorobenzyl)-1H-imidazol-4-yl)-3-(6-ethoxypyridin-3-yl)acrylamide], the IC50 in the experiment with HCT-116 cells (Homo sapiens) stood at 0.32 µmol/L; with FaDu cells, 0.05 µmol/L; in the experiment on HT-29 cells (Homo sapiens) it was 0.02 µmol/L.
The matching figures for `Nc1ccc(/C=C/C(=O)Nc2cn(Cc3cccc(Cl)c3)cn2)cc1` [Example 3, (E)-3-(4-Aminophenyl)-N-(1-(3-chlorobenzyl)-1H-imidazol-4-yl)acrylamide Dihydrochloride]: 6.76 µmol/L, 3.13 µmol/L and 3.58 µmol/L.
The matching figures for `Cn1cc(/C=C/C(=O)Nc2cn(Cc3cccc(Cl)c3)cn2)ccc1=O` [Example 12]: 7.54 µmol/L, 1.44 µmol/L and 0.92 µmol/L.
As for `CS(=O)(=O)c1ccc(/C=C/C(=O)Nc2cn(Cc3cccc(Cl)c3)cn2)cc1` [Example 13], the figures for the IC50 in the experiment on HCT-116 cells (Homo sapiens), in the experiment on FaDu cells and in the experiment with HT-29 cells (Homo sapiens) were 8.72 µmol/L, 2.84 µmol/L and 0.74 µmol/L, respectively.
Consider `Nc1ccc(/C=C/C(=O)Nc2cn(Cc3cccc(Cl)c3)cn2)cn1` [Example 19, (E)-3-(6-Aminopyridin-3-yl)-N-(1-(3-chlorobenzyl)-1H-imidazol-4-yl)acrylamide], for which the IC50 with HCT-116 cells (Homo sapiens) came to 0.89 µmol/L; in the experiment with FaDu cells it was 0.66 µmol/L; with HT-29 cells (Homo sapiens), 0.6 µmol/L.
The matching figures for `CC(=O)Nc1ccc(/C=C/C(=O)Nc2cn(Cc3cccc(Cl)c3)cn2)cn1` [Example 20, (E)-3-(6-Acetylaminopyridin-3-yl)-N-(1-(3-chlorobenzyl)-1H-imidazol-4-yl)acrylamide]: 0.45 µmol/L, 0.06 µmol/L and 0.01 µmol/L.
Consider `O=C(/C=C/c1ccc(O)c(O)c1)Nc1cn(Cc2cccc(Cl)c2)cn1` [Example 21, (E)-N-(1-(3-Chlorobenzyl)-1H-imidazol-4-yl)-3-(3,4-dihydroxyphenyl)acrylamide], for which the IC50 in the experiment with HCT-116 cells (Homo sapiens) was determined as 7.05 µmol/L; in the experiment with FaDu cells, 0.66 µmol/L; in the experiment with HT-29 cells (Homo sapiens) it was 6.65 µmol/L.
As to `COc1cc(/C=C/C(=O)Nc2cn(Cc3cccc(Cl)c3)cn2)ccc1O` [Example 24], the IC50 in the experiment with HCT-116 cells (Homo sapiens) was 7.42 µmol/L; with FaDu cells, 5.97 µmol/L; with HT-29 cells (Homo sapiens), > 10 µmol/L.
The matching figures for `COC(=O)c1ccc(/C=C/C(=O)Nc2cn(Cc3cccc(Cl)c3)cn2)cn1` [Example 25, Methyl (E)-5-(3-((1-(3-chlorobenzyl)-1H-imidazol-4-yl)amino)-3-oxoprop-1-en-1-yl)picolinate]: > 10 µmol/L, 0.89 µmol/L and 2.61 µmol/L.
For the compound `CCNC(=O)c1ccc(/C=C/C(=O)Nc2cn(Cc3cccc(Cl)c3)cn2)cn1` [Example 26, (E)-5-(3-((1-(3-Chlorobenzyl)-1H-imidazol-4-yl)amino)-3-oxoprop-1-en-1-yl)-N-ethylpicolinamide], the IC50 in the experiment with HCT-116 cells (Homo sapiens) was > 10 µmol/L; in the experiment on FaDu cells, 5.49 µmol/L; in the experiment with HT-29 cells (Homo sapiens), 5.83 µmol/L.
The like results for `CCCCNC(=O)c1ccc(/C=C/C(=O)Nc2cn(Cc3cccc(Cl)c3)cn2)cn1` [Example 27] were, in that order, > 10 µmol/L, 5.84 µmol/L and 3.38 µmol/L.
Consider `O=C(/C=C/c1ccc(C(=O)N2CCCC2)nc1)Nc1cn(Cc2cccc(Cl)c2)cn1` [Example 28], for which the IC50 came out at 7.89 µmol/L with HCT-116 cells (Homo sapiens), 0.8 µmol/L in the experiment with FaDu cells and 0.91 µmol/L in the experiment on HT-29 cells (Homo sapiens).
The matching figures for `COCCOc1cc(/C=C/C(=O)Nc2cn(Cc3cccc(Cl)c3)cn2)ccc1OC` [Example 29, (E)-N-(1-(3-Chlorobenzyl)-1H-imidazol-4-yl)-3-(4-methoxy-3-(2-methoxyethoxy)phenyl)acrylamide]: 5.87 µmol/L, 0.76 µmol/L and 0.89 µmol/L.
The matching figures for `COc1ccc(/C=C/C(=O)Nc2cn(Cc3cccc(Cl)c3)cn2)cc1OCC(N)=O` [Example 30]: > 10 µmol/L, 0.71 µmol/L and > 10 µmol/L.
As to `O=C(/C=C/c1cncc(F)c1)Nc1cn(Cc2cccc(Cl)c2)cn1` [Example 42, (E)-N-(1-(3-Chlorobenzyl)-1H-imidazol-4-yl)-3-(5-fluoropyridin-3-yl)acrylamide], the IC50 came to 0.96 µmol/L in the experiment on HCT-116 cells (Homo sapiens), 5.77 µmol/L in the experiment on FaDu cells and 0.7 µmol/L in the experiment on HT-29 cells (Homo sapiens).
The matching figures for `O=C(Nc1cn(Cc2cccc(Cl)c2)cn1)/C(F)=C/c1cccnc1` [Example 43, (Z)—N-(1-(3-Chlorobenzyl)-1H-imidazol-4-yl)-2-fluoro-3-(pyridin-3-yl)acrylamide]: 0.85 µmol/L, 0.69 µmol/L and 0.49 µmol/L.
As to `C=Cc1ncc(C(=O)Nc2cn(Cc3cccc(C(F)(F)F)c3)cn2)cc1F` [Example 99, 6-Ethenyl-5-fluoro-N-{1-[3-(trifluoromethyl)benzyl]-1H-imidazol-4-yl}nicotinamide], the values for the IC50 in the experiment on HCT-116 cells (Homo sapiens) and with HT-29 cells (Homo sapiens) were 6.12 µmol/L and 2.52 µmol/L, respectively.
As for `O=C(Nc1cn(Cc2cccc(C(F)(F)F)c2)cn1)c1cc2ccccc2cn1` [Example 178], the IC50 in the experiment on HCT-116 cells was found to be 9.6 µmol/L; in the experiment with HT-29 cells, 8.13 µmol/L.
On to `O=C(Nc1cn(Cc2cccc(C(F)(F)F)c2)cn1)c1cccnn1` [Example 182], for which the IC50 was > 10 µmol/L in the experiment with HCT-116 cells and 5.6 µmol/L in the experiment on HT-29 cells.
The matching figures for `O=C(Nc1cn(Cc2cccc(C(F)(F)F)c2)cn1)c1ccc2ncccc2n1` [Example 184]: 8.16 µmol/L and 9.07 µmol/L.
The matching figures for `COc1ccc(C(=O)Nc2cn(Cc3cccc(Cl)c3)cn2)c(OC)n1` [Example 189]: 4.94 µmol/L and 4.64 µmol/L.
The matching figures for `O=C(Nc1cn(Cc2cccc(C(F)(F)F)c2)cn1)c1cc2cnccc2s1` [Example 194]: 6.05 µmol/L and 2.84 µmol/L.
With `O=C(Nc1cn(Cc2cccc(C(F)(F)F)c2)cn1)c1cnc(Br)c(F)c1` [Example 227], the IC50 in the experiment with HCT-116 cells is 9.06 µmol/L; in the experiment on HT-29 cells, 8 µmol/L.
As to `COc1ccc(OC)c(/C=C/C(=O)Nc2cn(Cc3cccc(C(F)(F)F)c3)cn2)c1` [Example 233], the IC50 in the experiment on HCT-116 cells (Homo sapiens) stood at 4.35 µmol/L; in the experiment with HT-29 cells (Homo sapiens) it was 5.46 µmol/L.
For `O=C(/C=C/c1cc(O)ccc1O)Nc1cn(Cc2cccc(C(F)(F)F)c2)cn1` [Example 235, (2E)-3-(2,5-Dihydroxyphenyl)-N-{1-[3-(trifluoromethyl)benzyl]-1H-imidazol-4-yl}prop-2-enamide Hydrochloride], the IC50 worked out at 3.84 µmol/L with HCT-116 cells (Homo sapiens) and 8.77 µmol/L in the experiment on HT-29 cells (Homo sapiens).
The like results for `O=C(Nc1cn(Cc2cccc(C(F)(F)F)c2)cn1)c1ccc(-c2ccc(CO)nc2)cc1` [Example 246, 4-[6-(Hydroxymethyl)pyridin-3-yl]-N-{-[3-(trifluoromethyl)benzyl]-1H-imidazol-4-yl}benzamide] were, in that order, 6.72 µmol/L and 6.36 µmol/L.
The like results for `O=C(Nc1cn(Cc2cccc(C(F)(F)F)c2)cn1)c1ccccc1CO` [Example 250, 2-(Hydroxymethyl)-N-{1-[3-(trifluoromethyl)benzyl]-1H-imidazol-4-yl}benzamide] were, in that order, > 10 µmol/L and 8.19 µmol/L.
As for `COc1ccc(NC(=O)c2cn(Cc3cc(F)c(F)c(F)c3)cn2)cn1` [Example 254], the IC50 was > 10 µmol/L with HCT-116 cells and 6.45 µmol/L in the experiment on HT-29 cells.
Take `COc1ccc(NC(=O)c2cn(Cc3cccc(Cl)c3)cn2)cn1` [Example 263]: the IC50 in the experiment on HCT-116 cells is > 10 µmol/L; in the experiment on HT-29 cells, 8.49 µmol/L.
